Earlier results, collected in patent US8552052B2, “Use of diindolylmethane-related indoles for the treatment and prevention of respiratory syncytial virus associated conditions” (BioResponse, L.L.C., priority 2004, dated 2013).

System: RSV
Conditions: monthly intramuscular injections; cited from earlier work

Palivizumab: IgG1 monoclonal antibody that selectively binds to the RSV surface glycoprotein F
reduction of the rate of hospitalization of at-risk infants: about 55%
